Measurements from EP2327700A1, “Dialkyl triazinamines and use thereof for combating undesired plant growth” (Bayer CropScience AG, priority 2009, dated 2011).

Assays:
Lolium multiflorum = test: Herbicidal action pre-emergence (greenhouse pot test); assay type: in vivo; details: 320 g/ha, visual rating after 3 weeks vs untreated controls
Description: (§1) • 1. Herbizide Wirkung bzw. Kulturpflanzenverträglichkeit im Vorauflauf Samen von mono- bzw. dikotylen Unkraut- bzw. Kulturpflanzen werden in Holzfasertöpfen in sandiger Lehmerde ausgelegt und mit Erde abgedeckt. Die in Form von benetzbaren Pulvern (WP) oder als Emulsionskonzentrate (EC) formulierten erfindungsgemäßen Verbindungen werden dann als wäßrige Suspension bzw. Emulsion mit einer Wasseraufwandmenge von umgerechnet 600 bis 800 I/ha unter Zusatz von 0,2% Netzmittel auf die Oberfläche der Abdeckerde appliziert. Nach der Behandlung werden die Töpfe im Gewächshaus aufgestellt und unter guten Wachstumsbedingungen für die Testpflanzen gehalten. Die visuelle Bonitur der Schäden an den Versuchspflanzen erfolgt nach einer Versuchszeit von 3 Wochen im Vergleich zu unbehandelten Kontrollen (herbizide Wirkung in Prozent (%): 100% Wirkung = Pflanzen sind abgestorben, 0 % Wirkung = wie Kontrollpflanzen). Dabei zeigen beispielsweise die Verbindungen Nr. I-16, I-17, I-48, I-50, I-51, I-52, I-54 und I-63 bei einer Aufwandmenge von 320 g/ha jeweils eine mindestens 80%-ige Wirkung gegen Lolium multiflorum, Setaria viridis und Stellaria media. Die Verbindungen Nr. I-64, I-65, I-66, I-68, I-69 und I-70 zeigen bei einer Aufwandmenge von 320 g/ha jeweils eine mindestens 80%-ige Wirkung gegen Amaranthus retroflexus, Pharbitis purpureumund Veronica persica. • 2. Herbizide Wirkung bzw. Kulturpflanzenverträglichkeit im Nachauflauf Samen von mono- bzw. dikotylen Unkraut- bzw. Kulturpflanzen werden in Holzfasertöpfen in sandigem Lehmboden ausgelegt, mit Erde abgedeckt und im Gewächshaus unter guten Wachstumsbedingungen angezogen. 2 bis 3 Wochen nach der Aussaat werden die Versuchspflanzen im Einblattstadium behandelt. Die in Form von benetzbaren Pulvern (WP) oder als Emulsionskonzentrate (EC) formulierten erfindungsgemäßen Verbindungen werden dann als wäßrige Suspension bzw. Emulsion mit einer Wasseraufwandmenge von umgerechnet 600 bis 800 I/ha unter Zusatz von 0,2% Netzmittel auf die grünen Pflanzenteile gesprüht. Nach ca. 3 Wochen Standzeit der Versuchspflanzen im Gewächshaus unter optimalen Wachstumsbedingungen wird die Wirkung der Präparate visuell im Vergleich zu unbehandelten Kontrollen bonitiert (herbizide Wirkung in Prozent (%): 100% Wirkung = Pflanzen sind abgestorben, 0 % Wirkung = wie Kontrollpflanzen). Dabei zeigen beispielsweise die Verbindungen Nr. I-50, I-52, I-54 und I-64 bei einer Aufwandmenge von 320 g/ha jeweils eine mindestens 80%-ige Wirkung gegen Alopecurus myosuroides, Setaria viridis und Stellaria media. Die Verbindungen Nr. I-51, I-63, I-66, I-69 und I-70 zeigen bei einer Aufwandmenge von 320 g/ha jeweils eine mindestens 80%-ige Wirkung gegen Alopecurus myosuroides, Veronica persica und Viola tricolor.

Setaria viridis [1] = test: as above; assay type: in vivo; details: 320 g/ha, visual rating after 3 weeks vs untreated controls
Description: as §1

Stellaria media [2] = test: as above; assay type: in vivo; details: 320 g/ha, visual rating after 3 weeks vs untreated controls
Description: as §1

Alopecurus myosuroides = test: Herbicidal action post-emergence (greenhouse pot test); assay type: in vivo; details: 320 g/ha, visual rating after ca. 3 weeks vs untreated controls
Description: as §1

Setaria viridis [3] = test: as above; assay type: in vivo; details: 320 g/ha, visual rating after ca. 3 weeks vs untreated controls
Description: as §1

Stellaria media [4] = test: as above; assay type: in vivo; details: 320 g/ha, visual rating after ca. 3 weeks vs untreated controls
Description: as §1

[5] = logp (HCOOH) determination; assay type: physicochemical
Veronica persica [6] = test: Herbicidal action post-emergence (greenhouse pot test); assay type: in vivo; details: 320 g/ha, visual rating after ca. 3 weeks vs untreated controls
Description: as §1

Viola tricolor = test: as above; assay type: in vivo; details: 320 g/ha, visual rating after ca. 3 weeks vs untreated controls
Description: as §1

Amaranthus retroflexus = test: Herbicidal action pre-emergence (greenhouse pot test); assay type: in vivo; details: 320 g/ha, visual rating after 3 weeks vs untreated controls
Description: as §1

Pharbitis purpureum = test: as above; assay type: in vivo; details: 320 g/ha, visual rating after 3 weeks vs untreated controls
Description: as §1

Veronica persica [7] = test: as above; assay type: in vivo; details: 320 g/ha, visual rating after 3 weeks vs untreated controls
Description: as §1

Cc1cc(C)c2c(c1)C(Nc1nc(C)nc(C)n1)CCC2 (stereo not drawn) [I-17, N2-(5,7-Dimethyl-1,2,3,4-tetrahydro-1-naphthalenyl)-4,6-dimethyl-1,3,5-triazin-2-amine]
herbizide Wirkung in Prozent (%) (Lolium multiflorum): ≥ 80%
herbizide Wirkung in Prozent (%) (Setaria viridis [1]): ≥ 80%
herbizide Wirkung in Prozent (%) (Stellaria media [2]): ≥ 80%

Cc1ccc2c(c1)[C@H](Nc1nc(C)nc(C(C)C)n1)[C@@H](C)C2 [I-50]
herbizide Wirkung in Prozent (%) (Lolium multiflorum): ≥ 80%
herbizide Wirkung in Prozent (%) (Setaria viridis [1]): ≥ 80%
herbizide Wirkung in Prozent (%) (Stellaria media [2]): ≥ 80%
herbizide Wirkung in Prozent (%) (Alopecurus myosuroides): ≥ 80%
herbizide Wirkung in Prozent (%) (Setaria viridis [3]): ≥ 80%
herbizide Wirkung in Prozent (%) (Stellaria media [4]): ≥ 80%
chromatographic logP ([5]; hcooh): 2.16

Cc1ccc2c(c1)[C@H](Nc1nc(C)nc(C(C)(C)C)n1)[C@@H](C)C2 [I-51]
herbizide Wirkung in Prozent (%) (Lolium multiflorum): ≥ 80%
herbizide Wirkung in Prozent (%) (Setaria viridis [1]): ≥ 80%
herbizide Wirkung in Prozent (%) (Stellaria media [2]): ≥ 80%
herbizide Wirkung in Prozent (%) (Alopecurus myosuroides): ≥ 80%
herbizide Wirkung in Prozent (%) (Veronica persica [6]): ≥ 80%
herbizide Wirkung in Prozent (%) (Viola tricolor): ≥ 80%
chromatographic logP ([5]; hcooh): 3.56

CCc1nc(C)nc(N[C@H]2c3cc(C)ccc3C[C@@H]2C)n1 [I-52]
herbizide Wirkung in Prozent (%) (Lolium multiflorum): ≥ 80%
herbizide Wirkung in Prozent (%) (Setaria viridis [1]): ≥ 80%
herbizide Wirkung in Prozent (%) (Stellaria media [2]): ≥ 80%
herbizide Wirkung in Prozent (%) (Alopecurus myosuroides): ≥ 80%
herbizide Wirkung in Prozent (%) (Setaria viridis [3]): ≥ 80%
herbizide Wirkung in Prozent (%) (Stellaria media [4]): ≥ 80%
chromatographic logP ([5]; hcooh): 1.85

CCc1nc(C)nc(N[C@@H]2CCCc3ccccc32)n1 [I-53]
chromatographic logP ([5]; hcooh): 1.48

COCc1nc(C)nc(N[C@H]2c3cc(C)ccc3C[C@@H]2C)n1 [I-54, N-[(1R,2S)-2,6-Dimethyl-2,3-dihydro-1H-inden-1-yl]-4-(methoxymethyl)-6-methyl-1,3,5-triazin-2-amin]
herbizide Wirkung in Prozent (%) (Lolium multiflorum): ≥ 80%
herbizide Wirkung in Prozent (%) (Setaria viridis [1]): ≥ 80%
herbizide Wirkung in Prozent (%) (Stellaria media [2]): ≥ 80%
herbizide Wirkung in Prozent (%) (Alopecurus myosuroides): ≥ 80%
herbizide Wirkung in Prozent (%) (Setaria viridis [3]): ≥ 80%
herbizide Wirkung in Prozent (%) (Stellaria media [4]): ≥ 80%
chromatographic logP ([5]; HCOOH (formic acid)): 2.16

Cc1ccc2c(c1)[C@H](Nc1nc(C)nc(C)n1)[C@@H](C)C2 [I-63]
herbizide Wirkung in Prozent (%) (Lolium multiflorum): ≥ 80%
herbizide Wirkung in Prozent (%) (Setaria viridis [1]): ≥ 80%
herbizide Wirkung in Prozent (%) (Stellaria media [2]): ≥ 80%
herbizide Wirkung in Prozent (%) (Alopecurus myosuroides): ≥ 80%
herbizide Wirkung in Prozent (%) (Veronica persica [6]): ≥ 80%
herbizide Wirkung in Prozent (%) (Viola tricolor): ≥ 80%
chromatographic logP ([5]; hcooh): 1.59

Cc1ccc2c(c1)[C@H](Nc1nc(C)nc(C(F)F)n1)[C@@H](C)C2 [I-64]
herbizide Wirkung in Prozent (%) (Amaranthus retroflexus): ≥ 80%
herbizide Wirkung in Prozent (%) (Pharbitis purpureum): ≥ 80%
herbizide Wirkung in Prozent (%) (Veronica persica [7]): ≥ 80%
herbizide Wirkung in Prozent (%) (Alopecurus myosuroides): ≥ 80%
herbizide Wirkung in Prozent (%) (Setaria viridis [3]): ≥ 80%
herbizide Wirkung in Prozent (%) (Stellaria media [4]): ≥ 80%
chromatographic logP ([5]; hcooh): 3.44

Cc1ccc2c(c1)[C@H](Nc1nc(C)nc(C(F)(F)Cl)n1)[C@@H](C)C2 [I-66]
herbizide Wirkung in Prozent (%) (Amaranthus retroflexus): ≥ 80%
herbizide Wirkung in Prozent (%) (Pharbitis purpureum): ≥ 80%
herbizide Wirkung in Prozent (%) (Veronica persica [7]): ≥ 80%
herbizide Wirkung in Prozent (%) (Alopecurus myosuroides): ≥ 80%
herbizide Wirkung in Prozent (%) (Veronica persica [6]): ≥ 80%
herbizide Wirkung in Prozent (%) (Viola tricolor): ≥ 80%
chromatographic logP ([5]; hcooh): 4.36

Cc1nc(N[C@@H]2CCCc3ccccc32)nc(C(F)(F)Cl)n1 [I-67]
chromatographic logP ([5]; hcooh): 3.9

Cc1ccc2c(c1)[C@H](Nc1nc(C)nc(C(Cl)Cl)n1)[C@@H](C)C2 [I-69]
herbizide Wirkung in Prozent (%) (Amaranthus retroflexus): ≥ 80%
herbizide Wirkung in Prozent (%) (Pharbitis purpureum): ≥ 80%
herbizide Wirkung in Prozent (%) (Veronica persica [7]): ≥ 80%
herbizide Wirkung in Prozent (%) (Alopecurus myosuroides): ≥ 80%
herbizide Wirkung in Prozent (%) (Veronica persica [6]): ≥ 80%
herbizide Wirkung in Prozent (%) (Viola tricolor): ≥ 80%
chromatographic logP ([5]; hcooh): 4.13

Cc1ccc2c(c1)[C@H](Nc1nc(C)nc(C(Cl)(Cl)Cl)n1)[C@@H](C)C2 [I-70, N-[(1R,2S)-2,6-Dimethyl-2,3-dihydro-1H-inden-1-yl]-4-methyl-6-(trichloromethyl)-1,3,5-triazin-2-amin]
herbizide Wirkung in Prozent (%) (Amaranthus retroflexus): ≥ 80%
herbizide Wirkung in Prozent (%) (Pharbitis purpureum): ≥ 80%
herbizide Wirkung in Prozent (%) (Veronica persica [7]): ≥ 80%
herbizide Wirkung in Prozent (%) (Alopecurus myosuroides): ≥ 80%
herbizide Wirkung in Prozent (%) (Veronica persica [6]): ≥ 80%
herbizide Wirkung in Prozent (%) (Viola tricolor): ≥ 80%
chromatographic logP ([5]; HCOOH (formic acid)): 4.85

Cc1nc(N[C@@H]2CCCc3ccccc32)nc(C(Cl)(Cl)Cl)n1 [I-71]
chromatographic logP ([5]; hcooh): 4.4

Cc1nc(C)nc(N[C@@H]2CCCc3ccccc32)n1 [I-78, 4,6-Dimethyl-N-[(1R)-1,2,3,4-tetrahydronaphthalen-1-yl]-1,3,5-triazin-2-amine]
chromatographic logP ([5]; HCOOH (formic acid)): 1.35

Cc1nc(N[C@H]2c3cc(Br)ccc3C[C@@H]2C)nc(C(F)(F)Cl)n1 [I-81]
chromatographic logP ([5]; hcooh): 3.8

Cc1nc(NC2CC(C)(C)Oc3cc(Cl)c(F)cc32)nc(C(F)(F)Cl)n1 (stereo not drawn) [I-82]
chromatographic logP ([5]; hcooh): 4.32

Cc1nc(N[C@@H]2CCOc3c(F)cccc32)nc(C(F)(F)Cl)n1 [I-83]
chromatographic logP ([5]; hcooh): 3.06

Cc1nc(N[C@@H]2CCOc3ccccc32)nc(C(F)(F)Cl)n1 [I-84]
chromatographic logP ([5]; hcooh): 3.11

Cc1ccc2c(c1)[C@H](Nc1nc(C)nc(C(F)(F)F)n1)[C@@H](C)C2 [I-87]
chromatographic logP ([5]; hcooh): 4.21

Cc1nc(N[C@@H]2CCc3ccccc32)nc(C(F)F)n1 [I-91]
chromatographic logP ([5]; hcooh): 2.69

Cc1nc(NC2CC(C)(C)Oc3cc(Cl)c(F)cc32)nc(C(F)F)n1 (stereo not drawn) [I-95]
chromatographic logP ([5]; hcooh): 4.32

Cc1nc(NC2CCc3ccc(C(C)C)cc32)nc(C(F)F)n1 (stereo not drawn) [I-100]
chromatographic logP ([5]; hcooh): 3.79

CCOc1ccc2c(c1)C(Nc1nc(C)nc(C(F)F)n1)CCC2 (stereo not drawn) [I-122]
chromatographic logP ([5]; hcooh): 3.34

Cc1nc(NC2CCOc3ccc(C(C)C)cc32)nc(C(F)F)n1 (stereo not drawn) [I-125]
chromatographic logP ([5]; hcooh): 3.41

Cc1ccc2c(c1)OC(C)(C)CC2Nc1nc(C)nc(C(F)F)n1 (stereo not drawn) [I-130]
chromatographic logP ([5]; hcooh): 3.3

CCc1ccc2c(c1)C(Nc1nc(C)nc(C(F)F)n1)CCO2 (stereo not drawn) [I-134]
chromatographic logP ([5]; hcooh): 3.1

CCc1ccc2c(c1)C(Nc1nc(C)nc(C(F)(F)F)n1)CCO2 (stereo not drawn) [I-135]
chromatographic logP ([5]; hcooh): 3.71

Cc1nc(NC2c3ccc(Cl)cc3CC2C)nc(C(F)F)n1 (stereo not drawn) [I-137]
chromatographic logP ([5]; hcooh): 3.58

Cc1nc(NC2CCc3c(C)cccc32)nc(C(F)(F)Cl)n1 (stereo not drawn) [I-147]
chromatographic logP ([5]; hcooh): 3.98

COc1ccc2c(c1)CCCC2Nc1nc(C)nc(C(F)F)n1 (stereo not drawn) [I-159]
chromatographic logP ([5]; hcooh): 2.9

Cc1nc(C)nc(NC2CCc3c(C)cccc32)n1 (stereo not drawn) [I-168, 4,6-Dimethyl-N-(4-methyl-2,3-dihydro-1H-inden-1-yl)-1,3,5-triazin-2-amine]
chromatographic logP ([5]; HCOOH (formic acid)): 1.36

Cc1nc(N[C@H]2c3cc(Br)ccc3C[C@@H]2C)nc(C(F)F)n1 [I-235, N-[trans-6-Brom-2-methyl-2,3-dihydro-1H-inden-1-yl]-4-(difluoromethyl)-6-methyl-1,3,5-triazin-2-amin]
chromatographic logP ([5]; hcooh): 3.55

COc1ccc2c(c1)C(Nc1nc(C)nc(C(F)(F)F)n1)CCO2 (stereo not drawn) [I-237]
chromatographic logP ([5]; hcooh): 2.93

CCc1ccc2c(c1)C(Nc1nc(C)nc(C)n1)CCO2 (stereo not drawn) [I-238]
chromatographic logP ([5]; hcooh): 1.51
